# Assay results from PubChem BioAssay (NCI).
#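 GI50 is the concentration that inhibits growth by half. TGI: concentration producing complete growth inhibition.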
# Columns and labels:
# Assay in all cases: NCI tumour cell line growth inhibition, 384-well format
# U251 glioblastoma = tested on: U251 glioblastoma
# SNB-75 CNS = tested on: SNB-75 CNS
# MCF7 breast = tested on: MCF7 breast
# NCI-H23 lung = tested on: NCI-H23 lung
# UACC-257 melanoma = tested on: UACC-257 melanoma
# EKVX NSCLC = tested on: EKVX NSCLC
# CAKI-1 renal = tested on: CAKI-1 renal
# SNB-19 CNS = tested on: SNB-19 CNS
# HCT-15 colon = tested on: HCT-15 colon
# HL-60(TB) leukemia = tested on: HL-60(TB) leukemia
# NCI/ADR-RES ovarian = tested on: NCI/ADR-RES ovarian
# SW-620 colon = tested on: SW-620 colon
# 786-0 renal = tested on: 786-0 renal
# HOP-62 NSCLC = tested on: HOP-62 NSCLC
# OVCAR-5 ovarian = tested on: OVCAR-5 ovarian
# MDA-MB-468 breast = tested on: MDA-MB-468 breast
# MALME-3M melanoma = tested on: MALME-3M melanoma
# SF-539 CNS = tested on: SF-539 CNS
# NCI-H322M lung = tested on: NCI-H322M lung
# A549 NSCLC = tested on: A549 NSCLC
# A498 renal = tested on: A498 renal
# HCC-2998 colon = tested on: HCC-2998 colon
# NCI-H522 lung = tested on: NCI-H522 lung
# TK-10 renal = tested on: TK-10 renal
# NCI-H226 lung = tested on: NCI-H226 lung
# SK-MEL-5 melanoma = tested on: SK-MEL-5 melanoma
# SK-MEL-28 melanoma = tested on: SK-MEL-28 melanoma
# HOP-92 NSCLC = tested on: HOP-92 NSCLC
# UO-31 renal = tested on: UO-31 renal
# K-562 leukemia = tested on: K-562 leukemia
# OVCAR-3 ovarian = tested on: OVCAR-3 ovarian
# MOLT-4 leukemia = tested on: MOLT-4 leukemia
# SN12C renal = tested on: SN12C renal
# MDA-MB-435 melanoma = tested on: MDA-MB-435 melanoma
# NCI-H460 NSCLC = tested on: NCI-H460 NSCLC
# ACHN renal = tested on: ACHN renal
# KM12 colon = tested on: KM12 colon
# RPMI-8226 leukemia = tested on: RPMI-8226 leukemia
# PC-3 prostate = tested on: PC-3 prostate
# BT-549 breast = tested on: BT-549 breast
# DU-145 prostate = tested on: DU-145 prostate
# OVCAR-8 ovarian = tested on: OVCAR-8 ovarian
# CCRF-CEM leukemia = tested on: CCRF-CEM leukemia
# LOX IMVI melanoma = tested on: LOX IMVI melanoma
# OVCAR-4 ovarian = tested on: OVCAR-4 ovarian
# HS 578T breast = tested on: HS 578T breast
# UACC-62 melanoma = tested on: UACC-62 melanoma
# SF-268 CNS = tested on: SF-268 CNS
# T-47D breast = tested on: T-47D breast
# HCT-116 colon = tested on: HCT-116 colon
# SF-295 CNS = tested on: SF-295 CNS
# M14 melanoma = tested on: M14 melanoma
# SK-OV-3 ovarian = tested on: SK-OV-3 ovarian
# HT29 colon = tested on: HT29 colon
# IGROV1 ovarian = tested on: IGROV1 ovarian
compound,measurement,setting,value
CC[C@@H](C)Nc1cc(C(=O)NC2CC3CCC(C2)N3c2ccc(C(=O)C3CC3)cn2)c(C)cc1C(N)=O (some centres undefined),GI50,U251 glioblastoma,23.2 nM
same,TGI,U251 glioblastoma,65.6 nM
same,GI50,SNB-75 CNS,82.4 nM
same,TGI,SNB-75 CNS,464 nM
same,GI50,MCF7 breast,< 10 nM
same,TGI,MCF7 breast,237 nM
same,GI50,NCI-H23 lung,17.6 nM
same,TGI,NCI-H23 lung,53.6 nM
same,GI50,UACC-257 melanoma,62.1 nM
same,TGI,UACC-257 melanoma,25100 nM
same,GI50,EKVX NSCLC,36.7 nM
same,TGI,EKVX NSCLC,17700 nM
same,GI50,CAKI-1 renal,46.2 nM
same,TGI,CAKI-1 renal,19200 nM
same,GI50,SNB-19 CNS,41.6 nM
same,TGI,SNB-19 CNS,17300 nM
same,GI50,HCT-15 colon,36.1 nM
same,TGI,HCT-15 colon,15000 nM
same,GI50,HL-60(TB) leukemia,12.6 nM
same,TGI,HL-60(TB) leukemia,26.3 nM
same,GI50,NCI/ADR-RES ovarian,277 nM
same,TGI,NCI/ADR-RES ovarian,782 nM
same,GI50,SW-620 colon,26.2 nM
same,TGI,SW-620 colon,78.8 nM
same,GI50,786-0 renal,33.2 nM
same,TGI,786-0 renal,11700 nM
same,GI50,HOP-62 NSCLC,29.5 nM
same,TGI,HOP-62 NSCLC,13700 nM
same,GI50,OVCAR-5 ovarian,39.9 nM
same,TGI,OVCAR-5 ovarian,30800 nM
same,GI50,MDA-MB-468 breast,17.9 nM
same,TGI,MDA-MB-468 breast,42.8 nM
same,GI50,MALME-3M melanoma,19.9 nM
same,TGI,MALME-3M melanoma,78.5 nM
same,GI50,SF-539 CNS,20 nM
same,TGI,SF-539 CNS,51.1 nM
same,GI50,NCI-H322M lung,27.5 nM
same,TGI,NCI-H322M lung,19100 nM
same,GI50,A549 NSCLC,< 10 nM
same,TGI,A549 NSCLC,11700 nM
same,GI50,A498 renal,23.3 nM
same,TGI,A498 renal,17600 nM
same,GI50,HCC-2998 colon,< 10 nM
same,TGI,HCC-2998 colon,39.6 nM
same,GI50,NCI-H522 lung,19.4 nM
same,TGI,NCI-H522 lung,46.3 nM
same,GI50,TK-10 renal,42 nM
same,TGI,TK-10 renal,32800 nM
same,GI50,NCI-H226 lung,30.3 nM
same,TGI,NCI-H226 lung,171 nM
same,GI50,SK-MEL-5 melanoma,19.7 nM
same,TGI,SK-MEL-5 melanoma,10600 nM
same,GI50,SK-MEL-28 melanoma,43.7 nM
same,TGI,SK-MEL-28 melanoma,21600 nM
same,GI50,HOP-92 NSCLC,28.5 nM
same,TGI,HOP-92 NSCLC,70.8 nM
same,GI50,UO-31 renal,42.8 nM
same,TGI,UO-31 renal,67700 nM
same,GI50,K-562 leukemia,19.9 nM
same,TGI,K-562 leukemia,205 nM
same,GI50,OVCAR-3 ovarian,24.5 nM
same,TGI,OVCAR-3 ovarian,84.1 nM
same,GI50,MOLT-4 leukemia,< 10 nM
same,TGI,MOLT-4 leukemia,17.6 nM
same,GI50,SN12C renal,24.8 nM
same,TGI,SN12C renal,76.6 nM
same,GI50,MDA-MB-435 melanoma,62.6 nM
same,TGI,MDA-MB-435 melanoma,23300 nM
same,GI50,NCI-H460 NSCLC,< 10 nM
same,TGI,NCI-H460 NSCLC,24.3 nM
same,GI50,ACHN renal,45 nM
same,TGI,ACHN renal,28400 nM
same,GI50,KM12 colon,19.9 nM
same,TGI,KM12 colon,1620 nM
same,GI50,RPMI-8226 leukemia,25.1 nM
same,TGI,RPMI-8226 leukemia,85.6 nM
same,GI50,PC-3 prostate,28.3 nM
same,TGI,PC-3 prostate,85.9 nM
same,GI50,BT-549 breast,12.5 nM
same,GI50,DU-145 prostate,23.8 nM
same,TGI,DU-145 prostate,732 nM
same,GI50,OVCAR-8 ovarian,20.6 nM
same,TGI,OVCAR-8 ovarian,44.6 nM
same,GI50,CCRF-CEM leukemia,< 10 nM
same,TGI,CCRF-CEM leukemia,37 nM
same,GI50,LOX IMVI melanoma,16.6 nM
same,TGI,LOX IMVI melanoma,31.7 nM
same,GI50,OVCAR-4 ovarian,6750 nM
same,TGI,OVCAR-4 ovarian,23500 nM
same,GI50,HS 578T breast,40.3 nM
same,TGI,HS 578T breast,236 nM
same,GI50,UACC-62 melanoma,26.4 nM
same,TGI,UACC-62 melanoma,81.1 nM
same,GI50,SF-268 CNS,11 nM
same,TGI,SF-268 CNS,36.3 nM
same,GI50,T-47D breast,12.2 nM
same,TGI,T-47D breast,52.8 nM
same,GI50,HCT-116 colon,36.8 nM
same,TGI,HCT-116 colon,14900 nM
same,GI50,SF-295 CNS,24.2 nM
same,TGI,SF-295 CNS,65.3 nM
same,GI50,M14 melanoma,31 nM
same,TGI,M14 melanoma,12800 nM
same,GI50,SK-OV-3 ovarian,24.9 nM
same,TGI,SK-OV-3 ovarian,15000 nM
same,GI50,HT29 colon,< 10 nM
same,TGI,HT29 colon,11500 nM
same,GI50,IGROV1 ovarian,13 nM
same,TGI,IGROV1 ovarian,85.9 nM
